Structures can show the parent of a compound that is named as a salt.
Each compound was assayed against T1, VLA-4 (α4β1 integrin) binding to immobilized VCAM-1 (Homo sapiens, UniProt P05556+P13612) (assay: VLA-4/VCAM-1 Screening Assay (solid-phase, dual antibody ELISA)). Details: not given.
T1 construct: followed by 10 μl of Ramos cell-derived VLA-4; endogenous in cells; host or cells: Ramos cells (VLA-4 preparation derived from the cells)
T1 sequence (P13612 34-1032): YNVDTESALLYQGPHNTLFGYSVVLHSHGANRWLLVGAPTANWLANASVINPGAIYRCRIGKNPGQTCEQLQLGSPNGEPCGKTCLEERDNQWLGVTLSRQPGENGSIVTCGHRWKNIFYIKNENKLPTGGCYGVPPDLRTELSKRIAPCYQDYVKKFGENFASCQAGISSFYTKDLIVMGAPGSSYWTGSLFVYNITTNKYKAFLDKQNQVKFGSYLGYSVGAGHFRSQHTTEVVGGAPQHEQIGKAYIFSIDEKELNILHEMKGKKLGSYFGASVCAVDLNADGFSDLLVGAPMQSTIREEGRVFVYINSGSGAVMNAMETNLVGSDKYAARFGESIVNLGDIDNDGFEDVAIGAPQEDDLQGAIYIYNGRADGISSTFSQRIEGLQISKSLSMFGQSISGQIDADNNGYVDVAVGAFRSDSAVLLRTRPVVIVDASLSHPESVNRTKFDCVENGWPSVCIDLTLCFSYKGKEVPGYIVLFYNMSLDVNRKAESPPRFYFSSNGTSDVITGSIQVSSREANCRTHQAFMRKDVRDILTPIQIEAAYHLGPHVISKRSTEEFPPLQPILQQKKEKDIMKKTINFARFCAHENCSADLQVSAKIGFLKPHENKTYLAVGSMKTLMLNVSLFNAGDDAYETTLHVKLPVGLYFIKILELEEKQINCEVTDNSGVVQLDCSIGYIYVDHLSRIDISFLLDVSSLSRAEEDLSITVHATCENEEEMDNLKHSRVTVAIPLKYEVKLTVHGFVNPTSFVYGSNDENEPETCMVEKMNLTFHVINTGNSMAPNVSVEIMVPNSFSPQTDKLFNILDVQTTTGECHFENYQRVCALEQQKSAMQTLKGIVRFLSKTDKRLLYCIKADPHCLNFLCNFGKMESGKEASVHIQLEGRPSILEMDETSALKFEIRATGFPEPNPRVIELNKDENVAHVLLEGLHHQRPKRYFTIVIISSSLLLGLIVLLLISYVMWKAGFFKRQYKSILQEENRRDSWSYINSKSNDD
T1 sequence (P05556 21-798): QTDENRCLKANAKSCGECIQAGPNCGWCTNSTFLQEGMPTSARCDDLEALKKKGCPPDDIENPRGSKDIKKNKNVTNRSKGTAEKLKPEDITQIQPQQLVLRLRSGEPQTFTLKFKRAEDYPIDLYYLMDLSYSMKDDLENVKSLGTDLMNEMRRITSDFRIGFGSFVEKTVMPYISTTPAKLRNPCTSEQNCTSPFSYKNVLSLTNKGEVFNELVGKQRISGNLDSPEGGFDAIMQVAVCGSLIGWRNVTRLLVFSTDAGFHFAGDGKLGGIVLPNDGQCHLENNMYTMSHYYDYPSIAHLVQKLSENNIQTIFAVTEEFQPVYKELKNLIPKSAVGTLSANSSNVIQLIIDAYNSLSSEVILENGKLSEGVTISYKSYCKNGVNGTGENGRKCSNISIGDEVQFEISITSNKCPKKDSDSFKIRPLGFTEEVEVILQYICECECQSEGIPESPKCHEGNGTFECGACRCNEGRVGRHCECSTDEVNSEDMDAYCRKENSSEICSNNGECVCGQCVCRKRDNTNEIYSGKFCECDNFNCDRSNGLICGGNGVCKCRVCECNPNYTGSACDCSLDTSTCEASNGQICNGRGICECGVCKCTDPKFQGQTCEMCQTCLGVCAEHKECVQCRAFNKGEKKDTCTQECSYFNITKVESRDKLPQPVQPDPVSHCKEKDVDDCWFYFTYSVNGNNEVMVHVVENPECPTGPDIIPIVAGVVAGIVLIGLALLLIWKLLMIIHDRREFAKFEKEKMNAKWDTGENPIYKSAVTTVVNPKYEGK
Procedure: VLA-4 antagonist activity, defined as ability to compete for binding to immobilized VCAM-1 was quantitated using a solid-phase, dual antibody ELISA. VLA-4 (α4β1 integrin) bound to VCAM-1 was detected by a complex of anti-integrin β1 antibody: HRP-conjugated anti-mouse IgG: chromogenic substrate (K-Blue). Initially, this entailed coating 96 well plates (Nunc Maxisorp) with recombinant human VCAM-1 (0.4 μg in 100 μl PBS), sealing each plate and then allowing the plates to stand at 4° C for Å18 hr. […] On the day of assay, all plates were washed twice with VCAM Assay Buffer (200 μl/well of 50 mM Tris-HCl, 100 mM NaCl, 1 mM MnCl2, 0.05% Tween 20; pH 7.4). Test compounds were dissolved in 100% DMSO and then diluted 1:20 in VCAM Assay Buffer supplemented with 1 mg/mL BSA (i.e., final DMSO=5%). […] 100 μl per well of each dilution was added to the VCAM-coated plates, followed by 10 μl of Ramos cell-derived VLA-4. These plates were sequentially mixed on a platform shaker for 1 min, incubated for 2 hr at 37° C. and then washed four times with 200 μl/well VCAM Assay Buffer. 100 μl of mouse anti-human integrin β1 antibody was added to each well (0.6 μg/mL in VCAM Assay Buffer+1 mg/mL BSA) and allowed to incubate for 1 hr at 37° C. At the conclusion of this incubation period, all plates were washed four times with VCAM Assay Buffer (200 μl/well). A corresponding second antibody, HRP-conjugated goat anti-mouse IgG (100 μl per well @1:800 dilution in VCAM Assay Buffer+1 mg/mL BSA), was then added to each well, followed by a 1 hr incubation at room temperature and concluded by three washes (200 μl/well) with VCAM Assay Buffer. Color development was initiated by addition of 100 μl K-Blue per well (15 min incubation, room temp) and terminated by addition of 100 μl Red Stop Buffer per well. […] Results were calculated as % inhibition of total binding (i.e., VLA-4+VCAM-1 in the absence of test compound).
`O=C(Nc1ccc(C[C@H](NC(=O)C2(c3ccc(Cl)cc3)CCCC2)C(=O)O)cc1)c1ccnc2ccccc12` [Example 80] showed an inhibition at 0.01 µM of 53% and an inhibition at 0.1 µM of 89%. `CCCC(C)(CC)C(=O)N[C@@H](Cc1ccc(NC(=O)c2ccnc3ccccc23)cc1)C(=O)O` (some centres unmarked) [Example 68] was tested, and the inhibition at 0.01 µM was 49% and the inhibition at 0.1 µM was 86%. For `CCC(C(=O)N[C@@H](Cc1ccc(NC(=O)c2ccnc3ccccc23)cc1)C(=O)O)c1ccccc1` (some centres unmarked) [Example 69], the inhibition at 0.01 µM was 49% and the inhibition at 0.1 µM was 87%. Compound `O=C(Nc1ccc(C[C@H](NC(=O)C2(c3ccccc3)CCCC2)C(=O)O)cc1)c1ccnc2ccccc12` [Example 75] has an inhibition at 0.01 µM of 68% and an inhibition at 0.1 µM of 92%. `CC1CCC(C)(C(=O)N[C@@H](Cc2ccc(NC(=O)c3ccnc4ccccc34)cc2)C(=O)O)C1(C)C` (some centres unmarked) [Example 71] was tested, and the inhibition at 0.01 µM was 51% and the inhibition at 0.1 µM was 86%. For `CC(C)C(C(=O)N[C@@H](Cc1ccc(NC(=O)c2ccnc3ccccc23)cc1)C(=O)O)c1ccccc1` (some centres unmarked) [Example 76], the inhibition at 0.01 µM was 73% and the inhibition at 0.1 µM was 93%. For `COc1ccc(C2(C(=O)N[C@@H](Cc3ccc(NC(=O)c4ccnc5ccccc45)cc3)C(=O)O)CCCCC2)cc1` [Example 79], the inhibition at 0.01 µM was 77% and the inhibition at 0.1 µM was 95%.

Same assay, conditions: IC50 nM, Ramos cell-derived VLA-4, recombinant human VCAM-1 coated plates, 2 hr at 37° C.
`COc1cccc(CC2(C(=O)N[C@@H](Cc3ccc(NC(=O)c4c(Cl)cccc4Cl)cc3)C(=O)O)CCCC2)c1` [Example 52] gave an IC50 of 1.1 nM.

Same assay, conditions: Ramos cell-derived VLA-4, recombinant human VCAM-1 coated plates, 2 hr at 37° C.; read-out: IC50
`CC1(C)C2CCC1(C(=O)NC(Cc1ccc(NC(=O)c3c(Cl)cccc3Cl)cc1)C(=O)O)C(=O)C2` (centres unmarked) [Example 49] showed an IC50 of 4.7 nM. For `O=C(Nc1ccc(C[C@H](NC(=O)C2(c3ccc(Cl)cc3)CCCC2)C(=O)O)cc1)c1ccnc2ccccc12` [Example 80], the IC50 was 6.4 nM. `CCCC(C)(CC)C(=O)N[C@@H](Cc1ccc(NC(=O)c2ccnc3ccccc23)cc1)C(=O)O` (some centres unmarked) [Example 68] gave an IC50 of 8.2 nM. With `Cn1nc(C(C)(C)C)cc1C(=O)NCCC1(C(=O)N[C@@H](Cc2ccc(NC(=O)c3c(Cl)cccc3Cl)cc2)C(=O)O)CCCC1` [Example 167] the IC50 was 9.2 nM. Work on “4-[[(4-Cyano-4-phenyl-1-piperidinyl)carbonyl]amino]-L-phenylalanine on Wang Resin [Example 116]” yielded an IC50 of 0.88 nM. `CC1(C(=O)N[C@@H](Cc2ccc(NC(=O)CCN3CCCCC3)cc2)C(=O)O)CC1(Cl)Cl` (some centres unmarked) [Example 99] gave an IC50 of 2.1 nM. Compound `CC(=O)N[C@@H](Cc1ccc(O)cc1)C(=O)Nc1ccc(C[C@H](NC(=O)C23CC4CC(CC(C4)C2)C3)C(=O)O)cc1` [Example 86] has an IC50 of 6.8 nM. Compound `COc1ccc(C2(C(=O)N[C@@H](Cc3ccc(N4C(=O)CSC4c4ccc5ccccc5c4)cc3)C(=O)O)CCCCC2)cc1` (stereo partly drawn) [Example 142, N-[[1-(4-methoxyphenyl)cyclohexyl]carbonyl]-4-[2-(2-naphthyl)-4-oxo-3-thiazolidinyl]-L-phenylalanine] has an IC50 of 1.7 nM. `O=C(Nc1ccc(C[C@H](NC(=O)C2(c3ccccc3)CCCC2)C(=O)O)cc1)c1ccnc2ccccc12` [Example 27, N-[(1-Phenylcyclopentyl)carbonyl]-4-[(4-quinolinylcarbonyl)amino]-L-phenylalanine Sodium Salt] showed an IC50 of 2.7 nM. In the case of `COc1ccc(C2(C(=O)N[C@@H](Cc3ccc(NC(=O)c4ccc(F)cc4C(F)(F)F)cc3)C(=O)O)CCCCC2)cc1` [Example 104], the IC50 is reported as 10.4 nM. With `Cn1nnnc1-c1cccc(CC2(C(=O)N[C@@H](Cc3ccc(NC(=O)c4c(Cl)cccc4Cl)cc3)C(=O)O)CCCCC2)c1` [Example 50] the IC50 was 1.3 nM. `COc1ccc(C2(C(=O)N[C@@H](Cc3ccc(NS(=O)(=O)c4c(C)cc(C)cc4C)cc3)C(=O)O)CCCCC2)cc1` [Example 114, N-[[1-(4-Methoxyphenyl)cyclohexyl]carbonyl]-4-[[(2,4,6-trimethylphenyl)sulfonyl]amino]-L-phenylalanine] gave an IC50 of 155 nM. `CCC(C(=O)N[C@@H](Cc1ccc(NC(=O)c2ccnc3ccccc23)cc1)C(=O)O)c1ccccc1` (some centres unmarked) [Example 69] gave an IC50 of 5.8 nM. In the case of `COc1ccc(C2(C(=O)N[C@@H](Cc3ccc(N4C(=O)CSC4c4ccc(O)cc4)cc3)C(=O)O)CCCCC2)cc1` (stereo partly drawn) [Example 141, 4-[2-(4-Hydroxyphenyl)-4-oxo-3-thiazolidinyl]-N-[[1-(4-methoxyphenyl)cyclohexyl]carbonyl]-L-phenylalanine], the IC50 is reported as 3.9 nM. `O=C(Nc1ccc(C[C@H](NC(=O)C2(Cc3ccccc3)CCCC2)C(=O)O)cc1)c1ccccc1[N+](=O)[O-]` [Example 35, 4-[[(2-Nitrophenyl)carbonyl]amino]-N-[[1-(phenylmethyl)cyclopentyl]carbonyl]-L-phenylalanine] gave an IC50 of 5 nM. `CCCCC(CC)C(=O)NCCC1(C(=O)N[C@@H](Cc2ccc(NC(=O)c3c(Cl)cccc3Cl)cc2)C(=O)O)CCCC1` (some centres unmarked) [Example 161] was tested, and the IC50 was 9.4 nM. `N#CC1(C(=O)N[C@@H](Cc2ccc(NC(=O)CCN3CCCCC3)cc2)C(=O)O)CCCC1` [Example 92] showed an IC50 of 3 nM. With `COCCC1(C(=O)NC(Cc2ccc(N3C(=O)C(CC(C)C)N(C(C)=O)C3c3ccc(Cl)cc3)cc2)C(=O)O)CCCC1` (single isomer, unassigned) [Example 132] the IC50 was 2.8 nM. `CCCCC(C)(CC)C(=O)N[C@@H](Cc1ccc(NC(=O)c2cc([N+](=O)[O-])ccc2C)cc1)C(=O)O` (some centres unmarked) [Example 90] gave an IC50 of 1.04 nM. Work on `Cc1ccc([N+](=O)[O-])cc1C(=O)Nc1ccc(C[C@H](NC(=O)C23CC4CC(CC(C4)C2)C3)C(=O)O)cc1` [Example 85] yielded an IC50 of 0.43 nM. In the case of `COCCC1(C(=O)NC(Cc2ccc(N3C(=O)C(CC(C)C)N(C(C)=O)C3c3ccc(OC)cc3)cc2)C(=O)O)CCCC1` (single isomer, unassigned) [Example 131], the IC50 is reported as 63 nM. With `O=C(CC1CCCC1)NCCC1(C(=O)N[C@@H](Cc2ccc(NC(=O)c3c(Cl)cccc3Cl)cc2)C(=O)O)CCCC1` [Example 164] the IC50 was 6.2 nM. In the case of `COc1ccc(C2(C(=O)NC(Cc3ccc(NC(=O)CCN4CCCCC4)cc3)C(=O)O)CCCCC2)cc1` (centres unmarked) [Example 102], the IC50 is reported as 0.95 nM. `CCCCC(C)(CC)C(=O)N[C@@H](Cc1ccc(NC(=O)c2c(Cl)cccc2Cl)cc1)C(=O)O` (some centres unmarked) [Example 88] was tested, and the IC50 was 3.9 nM. With `COc1ccc(CC2(C(=O)N[C@@H](Cc3ccc(NC(=O)c4ccc(F)cc4C(F)(F)F)cc3)C(=O)O)CCCC2)cc1` [Example 96] the IC50 was 17.4 nM. With `CCCCC(C)(CC)C(=O)N[C@@H](Cc1ccc(NC(=O)c2ccc(F)cc2C(F)(F)F)cc1)C(=O)O` (some centres unmarked) [Example 89] the IC50 was 81 nM. Work on `COCCC1(C(=O)NC(Cc2ccc(N3C(=O)C(CC(C)C)N(C(C)=O)C3c3ccc(OC)cc3)cc2)C(=O)O)CCCC1` (single isomer, unassigned) [Example 136] yielded an IC50 of 0.73 nM. Compound `COc1ccc(CC2(C(=O)N[C@@H](Cc3ccc(N4C(=O)c5ccncc5C4=O)cc3)C(=O)O)CCCC2)cc1` [Example 109, 4-(2,3-Dihydro-1,3-dioxo-1H-pyrrolo[3,4-c]pyridin-2-yl)-N-[[1-[(4-methoxyphenyl)methyl]cyclopentyl]carbonyl]-L-phenylalanine] has an IC50 of 62 nM. `O=C(Nc1ccc(C[C@H](NC(=O)C2(c3ccccc3)CCCC2)C(=O)O)cc1)c1ccnc2ccccc12` [Example 75] showed an IC50 of 3.8 nM. `COCC1(C(=O)NC(Cc2ccc(NC(=O)c3c(Cl)cccc3Cl)cc2)C(=O)O)CCCC1` (centres unmarked) [Example 60] showed an IC50 of 1.05 nM. `CC1CCC(C)(C(=O)N[C@@H](Cc2ccc(NC(=O)c3ccnc4ccccc34)cc2)C(=O)O)C1(C)C` (some centres unmarked) [Example 71] gave an IC50 of 2.5 nM. `Cc1cc(C)c(S(=O)(=O)Nc2ccc(C[C@H](NC(=O)C34CC5CC(CC(C5)C3)C4)C(=O)O)cc2)c(C)c1` [Example 115, N-[(1-Adamantyl)carbonyl]-4-[[(2,4,6-trimethylphenyl)sulfonyl]amino]-L-phenylalanine] showed an IC50 of 22.7 nM. In the case of `N#CC1(c2ccccc2)CCN(C(=O)Nc2ccc(C[C@H](NC(=O)C34CC5CC(CC(C5)C3)C4)C(=O)O)cc2)CC1` [Example 118], the IC50 is reported as 0.35 nM. `CC(C)C(C(=O)N[C@@H](Cc1ccc(NC(=O)c2ccnc3ccccc23)cc1)C(=O)O)c1ccccc1` (some centres unmarked) [Example 76] gave an IC50 of 4.6 nM. `O=C(Nc1ccc(C[C@H](NC(=O)C2(Cc3ccccc3)CCCC2)C(=O)O)cc1)c1c(Cl)cccc1Cl` [Example 37, 4-[[(2,6-Dichlorophenyl)carbonyl]amino]-N-[[1-(phenylmethyl)cyclopentyl]carbonyl]-L-phenylalanine] showed an IC50 of 5 nM. `O=C(Nc1ccc(C[C@H](NC(=O)C23CC4CC(CC(C4)C2)C3)C(=O)O)cc1)c1c(Cl)cccc1Cl` [Example 83] showed an IC50 of 1.1 nM. `COc1ccc(C2(C(=O)N[C@@H](Cc3ccc(NC(=O)c4ccnc5ccccc45)cc3)C(=O)O)CCCCC2)cc1` [Example 79] was tested, and the IC50 was 1.2 nM. Work on `Cn1nnnc1-c1cccc(CC2(C(=O)N[C@@H](Cc3ccc(NC(=O)c4c(Cl)cccc4Cl)cc3)C(=O)O)CCCC2)c1` [Example 48] yielded an IC50 of 0.44 nM. `COc1ccc(CC2(C(=O)N[C@@H](Cc3ccc(NC(=O)c4ccccc4[N+](=O)[O-])cc3)C(=O)O)CCCC2)cc1` [Example 41, N-[[1-[(4-Methoxyphenyl)methyl]cyclopentyl]carbonyl]-4-[[(2-nitrophenyl)carbonyl]amino]-L-phenylalanine] gave an IC50 of 1.7 nM. `COc1ccc(C2(C(=O)N[C@@H](Cc3ccc(NC(=O)N4CCC(C#N)(c5ccccc5)CC4)cc3)C(=O)O)CCCCC2)cc1` [Example 122] showed an IC50 of 2.1 nM. `O=C(Nc1ccc(CC(NC(=O)C23CC4CC(CC(C4)C2)C3)C(=O)O)cc1)c1ccc(F)cc1C(F)(F)F` (centres unmarked) [Example 84] was tested, and the IC50 was 4.4 nM.

Reference: patent US6455550B1, “N-alkanoylphenylalanine derivatives” (Hoffmann-La Roche Inc., priority 1997, dated 2002)
